Test results from US10450378B2, “Cytotoxic and anti-mitotic compounds, and methods of using the same” (priority 2014, dated 2019).
Where two headings read alike, the source gives them in different places.

How the values were obtained:
Assay in all cases: Cellular cytotoxicity of compounds of Formula I, Example 3.1
Format in all cases: cell-based
[1] = test system: Human Pancreatic cell line BxPC-3; settings: five nights, CellTiter-Glo
Protocol: (§1) Compounds were tested on one or more of Human T-cell leukemia cell line Jurkat (ATCC: TIB-152); Human breast cancer cell lines HCC1954 (ATCC: CRL-2338) and JIMT-1 (DSMZ: ACC 589); Human Pancreatic cell line BxPC-3 (ATCC: CRL.1687), Human ovarian adenocarcinoma cell line SK-OV-3 (ATCC: HTB-77) and Human gastric carcinoma cell line NCI-N87 (ATCC: CRL. 5822); to assess their cytotoxicity.
(§2) Briefly, cells were obtained from commercial sources and cultured as described in the product sheet provided. Cells were removed from their culture vessels and the resulting cell suspension was counted using a ViCell (Beckman Coulter), then seeded at 25,000 cells/mL (2,500 cells/well) in Costar 3904 black walled, flat bottomed 96-well plates (cells were seeded in the inner 60 wells of 96-well TC plates, and outer edge wells filled with water). Adherent cell lines were incubated for one night at 37° C./5% CO2 atmosphere to allow the cells to attach to the microtiter plate surface, while suspension (Jurkat) cells were plated immediately before use. Cytotoxins were dissolved and serially diluted in dimethyl sulfoxide and then the solutions were added to complete growth medium at five-times the desired maximum final concentration. The cytotoxins were then titrated in growth medium, normally 1:3, over eight steps. A control with no test article present (growth medium alone) was included on each microtiter plate in sextuplicate. The prepared toxin titrations were added (25 μL/well) in triplicate to each cell line assayed. The cells and titrations were incubated at 37° C./5% CO2 for three nights (Jurkat) and five nights (all other cell lines). After the incubation, cell viability was measured using CellTiter-Glo® by adding 30 μL of prepared CellTiter-Glo® reagent to each assay well. The mixtures were incubated for at least twenty minutes in the dark prior to measuring emitted luminescence using a microplate luminometer (500 ms integration time). The collected relative luminescence units (RLU) were converted to % cytotoxicity using the growth medium alone control mentioned above (% Cytotoxicity=1-[well RLU/average medium alone control RLU]×100%).

[2] = test system: Human T-cell leukemia cell line Jurkat; settings: Homo sapiens, Jurkat, read-out: EC50 (nM) Jurkat
Protocol: as §1, §2

[3] = test system: Human gastric carcinoma cell line NCI-N87; settings: five nights, CellTiter-Glo
Protocol: as §1, §2

Molecule `CC[C@H](C)[C@@H]([C@@H](CC(=O)N1CCC[C@H]1[C@H](OC)[C@@H](C)C(=O)NS(=O)(=O)c1ccc(NC(=O)C(F)(F)F)cc1)OC)N(C)C(=O)[C@@H](NC(=O)[C@H]1CCCCN1C(C)C)C(C)C` [Compound 15, (R)-1-Isopropyl-N-((S)-1-(((3R,4S,5S)-3-methoxy-1-((S)-2-((1R,2R)-1-methoxy-2-methyl-3-oxo-3-((4-(2,2,2-trifluoroacetamido)phenyl)sulfonamido)propyl)pyrrolidin-1-yl)-5-methyl-1-oxoheptan-4-yl)(methyl)amino)-3-methyl-1-oxobutan-2-yl)piperidine-2-carboxamide] has an EC50 [1] of 14.5 nM, an EC50 ([2]; three nights, CellTiter-Glo) of 10.1 nM and an EC50 [3] of 11.7 nM.

Work on `CC[C@H](C)[C@@H]([C@@H](CC(=O)N1CCC[C@H]1[C@H](OC)[C@@H](C)C(=O)NS(=O)(=O)c1ccc(N)cc1)OC)N(C)C(=O)[C@@H](NC(=O)[C@H]1CCCCN1C(C)C)C(C)C` [Compound 16, (R)-N-((S)-1-(((3R,4S,5S)-1-((S)-2-((1R,2R)-3-((4-Aminophenyl)sulfonamido)-1-methoxy-2-methyl-3-oxopropyl)pyrrolidin-1-yl)-3-methoxy-5-methyl-1-oxoheptan-4-yl)(methyl)amino)-3-methyl-1-oxobutan-2-yl)-1-isopropylpiperidine-2-carboxamide] yielded an EC50 [1] of 17 nM, an EC50 ([2]; three nights, CellTiter-Glo) of 11.5 nM and an EC50 [3] of 14.4 nM.

`CC[C@H](C)[C@@H]([C@@H](CC(=O)N1CCC[C@H]1[C@H](OC)[C@@H](C)C(=O)NS(=O)(=O)c1ccc(N)cc1)OC)N(C)C(=O)[C@@H](NC(=O)C(C)(C)N)C(C)C` [Compound 17, (S)-2-(2-Amino-2-methylpropanamido)-N-((3R,4S,5S)-1-((S)-2-((1R,2R)-3-((4-aminophenyl)sulfonamido)-1-methoxy-2-methyl-3-oxopropyl)pyrrolidin-1-yl)-3-methoxy-5-methyl-1-oxoheptan-4-yl)-N,3-dimethylbutanamide] was tested, and the EC50 [1] was over 100 nM, the EC50 ([2]; three nights, CellTiter-Glo) was 30.5 nM and the EC50 [3] was over 100 nM.

For `CC[C@H](C)[C@@H]([C@@H](CC(=O)N1CCC[C@H]1[C@H](OC)[C@@H](C)C(=O)NS(=O)(=O)c1ccc(N)cc1)OC)N(C)C(=O)[C@@H](NC(=O)[C@@H](NC)C(C)(C)c1ccccc1)C(C)C` [Compound 19, (S)-N-((3R,4S,5S)-1-((S)-2-((1R,2R)-3-((4-Aminophenyl)sulfonamido)-1-methoxy-2-methyl-3-oxopropyl)pyrrolidin-1-yl)-3-methoxy-5-methyl-1-oxoheptan-4-yl)-N,3-dimethyl-2-((S)-3-methyl-2-(methylamino)-3-phenylbutanamido)butanamide], the EC50 [1] was 10.2 nM, the EC50 ([2]; three nights, CellTiter-Glo) was 2.2 nM and the EC50 [3] was 12.8 nM.

Molecule `CC[C@H](C)[C@@H]([C@@H](CC(=O)N1CCC[C@H]1[C@H](OC)[C@@H](C)C(=O)NS(=O)(=O)c1ccc(N)cc1)OC)N(C)C(=O)[C@@H](NC(=O)[C@@H](NC)C(C)C)C(C)C` [Compound 20, (S)-N-((3R,4S,5S)-1-((S)-2-((1R,2R)-3-((4-Aminophenyl)sulfonamido)-1-methoxy-2-methyl-3-oxopropyl)pyrrolidin-1-yl)-3-methoxy-5-methyl-1-oxoheptan-4-yl)-N,3-dimethyl-2-((S)-3-methyl-2-(methylamino)butanamido)butanamide] has an EC50 [1] of over 300 nM, an EC50 ([2]; three nights, CellTiter-Glo) of over 100 nM and an EC50 [3] of over 300 nM.

`CC[C@H](C)[C@@H]([C@@H](CC(=O)N1CCC[C@H]1[C@H](OC)[C@@H](C)C(=O)NS(=O)(=O)c1ccc(CNC(=O)C(F)(F)F)cc1)OC)N(C)C(=O)[C@@H](NC(=O)[C@H](C(C)C)N(C)C)C(C)C` [Compound 21, (S)-2-((S)-2-(Dimethylamino)-3-methylbutanamido)-N-((3R,4S,5S)-3-methoxy-1-((S)-2-((1R,2R)-1-methoxy-2-methyl-3-oxo-3-((4-((2,2,2-trifluoroacetamido)methyl)phenyl)sulfonamido)propyl)pyrrolidin-1-yl)-5-methyl-1-oxoheptan-4-yl)-N,3-dimethylbutanamide] gave an EC50 [1] of over 100 nM, an EC50 ([2]; three nights, CellTiter-Glo) of about 100 nM and an EC50 [3] of over 300 nM.

Molecule `CC[C@H](C)[C@@H]([C@@H](CC(=O)N1CCC[C@H]1[C@H](OC)[C@@H](C)C(=O)N[C@@H](Cc1ccccc1)C(=O)NS(=O)(=O)c1ccc(CNC(=O)C(F)(F)F)cc1)OC)N(C)C(=O)[C@@H](NC(=O)[C@H](C(C)C)N(C)C)C(C)C` [Compound 23, (S)-2-((S)-2-(Dimethylamino)-3-methylbutanamido)-N-((3R,4S,5S)-3-methoxy-1-((S)-2-((1R,2R)-1-methoxy-2-methyl-3-oxo-3-(((S)-1-oxo-3-phenyl-1-((4-((2,2,2-trifluoroacetamido)methyl)phenyl)sulfonamido)propan-2-yl)amino)propyl)pyrrolidin-1-yl)-5-methyl-1-oxoheptan-4-yl)-N,3-dimethylbutanamide] has an EC50 [1] of 17.2 nM, an EC50 [2] of 11.8 nM and an EC50 [3] of 11.3 nM.

Molecule `CC[C@H](C)[C@@H]([C@@H](CC(=O)N1CCC[C@H]1[C@H](OC)[C@@H](C)C(=O)N[C@@H](Cc1ccccc1)C(=O)NS(=O)(=O)c1ccc(CN)cc1)OC)N(C)C(=O)[C@@H](NC(=O)[C@H](C(C)C)N(C)C)C(C)C` [Compound 24, (S)-N-((3R,4S,5S)-1-((S)-2-((1R,2R)-3-(((S)-1-((4-(Aminomethyl)phenyl)sulfonamido)-1-oxo-3-phenylpropan-2-yl)amino)-1-methoxy-2-methyl-3-oxopropyl)pyrrolidin-1-yl)-3-methoxy-5-methyl-1-oxoheptan-4-yl)-2-((S)-2-(dimethylamino)-3-methylbutanamido)-N,3-dimethylbutanamide] has an EC50 [1] of over 100 nM, an EC50 ([2]; three nights, CellTiter-Glo) of about 100 nM and an EC50 [3] of over 100 nM.

Molecule `CC[C@H](C)[C@@H]([C@@H](CC(=O)N1CCC[C@H]1[C@H](OC)[C@@H](C)C(=O)NS(=O)(=O)c1ccc(C2(NC(=O)C(F)(F)F)CC2)cc1)OC)N(C)C(=O)[C@@H](NC(=O)[C@H](C(C)C)N(C)C)C(C)C` [Compound 29, (S)-2-((S)-2-(Dimethylamino)-3-methylbutanamido)-N-((3R,4S,5S)-3-methoxy-1-((S)-2-((1R,2R)-1-methoxy-2-methyl-3-oxo-3-(4-(1-(2,2,2-trifluoroacetamido)cyclopropyl)phenylsulfonamido)propyl)pyrrolidin-1-yl)-5-methyl-1-oxoheptan-4-yl)-N,3-dimethylbutanamide] has an EC50 ([2]; three nights, CellTiter-Glo) of 22.1 nM.

`CC[C@H](C)[C@@H]([C@@H](CC(=O)N1CCC[C@H]1[C@H](OC)[C@@H](C)C(=O)NS(=O)(=O)c1ccc(C2(N)CC2)cc1)OC)N(C)C(=O)[C@@H](NC(=O)[C@H](C(C)C)N(C)C)C(C)C` [Compound 30, (S)-N-((3R,4S,5S)-1-((S)-2-((1R,2R)-3-(4-(1-Aminocyclopropyl)phenylsulfonamido)-1-methoxy-2-methyl-3-oxopropyl)pyrrolidin-1-yl)-3-methoxy-5-methyl-1-oxoheptan-4-yl)-2-((S)-2-(dimethylamino)-3-methylbutanamido)-N,3-dimethylbutanamide] was tested, and the EC50 ([2]; three nights, CellTiter-Glo) was over 100 nM.

In the case of `CC[C@H](C)[C@@H]([C@@H](CC(=O)N1CCC[C@H]1[C@H](OC)[C@@H](C)C(=O)N[C@@H](Cc1ccccc1)C(=O)NS(=O)(=O)c1ccc(C2(NC(=O)C(F)(F)F)CC2)cc1)OC)N(C)C(=O)[C@@H](NC(=O)[C@H](C(C)C)N(C)C)C(C)C` [Compound 31, (S)-2-((S)-2-(Dimethylamino)-3-methylbutanamido)-N-((3R,4S,5S)-3-methoxy-1-((S)-2-((1R,2R)-1-methoxy-2-methyl-3-oxo-3-((S)-1-oxo-3-phenyl-1-(4-(1-(2,2,2-trifluoroacetamido)cyclopropyl)phenylsulfonamido)propan-2-ylamino)propyl)pyrrolidin-1-yl)-5-methyl-1-oxoheptan-4-yl)-N,3-dimethylbutanamide], the EC50 [2] was 31.1 nM.

Molecule `CC[C@H](C)[C@@H]([C@@H](CC(=O)N1CCC[C@H]1[C@H](OC)[C@@H](C)C(=O)N[C@@H](Cc1ccccc1)C(=O)NS(=O)(=O)c1ccc(C2(N)CC2)cc1)OC)N(C)C(=O)[C@@H](NC(=O)[C@H](C(C)C)N(C)C)C(C)C` [Compound 32, (S)-N-((3R,4S,5S)-1-((S)-2-((1R,2R)-3-((S)-1-(4-(1-Aminocyclopropyl)phenylsulfonamido)-1-oxo-3-phenylpropan-2-ylamino)-1-methoxy-2-methyl-3-oxopropyl)pyrrolidin-1-yl)-3-methoxy-5-methyl-1-oxoheptan-4-yl)-2-((S)-2-(dimethylamino)-3-methylbutanamido)-N,3-dimethylbutanamide] has an EC50 ([2]; three nights, CellTiter-Glo) of over 100 nM.
